Assay results: ChEMBL document CHEMBL1158101, “Protein tyrosine phosphatase-1B inhibitory activity of isoprenylated flavonoids isolated from Erythrina mildbraedii” (J Nat Prod, 2006)

Biological target: T1, Tyrosine-protein phosphatase non-receptor type 1 (Homo sapiens, UniProt P18031)
T1 sequence (P18031 whole entry): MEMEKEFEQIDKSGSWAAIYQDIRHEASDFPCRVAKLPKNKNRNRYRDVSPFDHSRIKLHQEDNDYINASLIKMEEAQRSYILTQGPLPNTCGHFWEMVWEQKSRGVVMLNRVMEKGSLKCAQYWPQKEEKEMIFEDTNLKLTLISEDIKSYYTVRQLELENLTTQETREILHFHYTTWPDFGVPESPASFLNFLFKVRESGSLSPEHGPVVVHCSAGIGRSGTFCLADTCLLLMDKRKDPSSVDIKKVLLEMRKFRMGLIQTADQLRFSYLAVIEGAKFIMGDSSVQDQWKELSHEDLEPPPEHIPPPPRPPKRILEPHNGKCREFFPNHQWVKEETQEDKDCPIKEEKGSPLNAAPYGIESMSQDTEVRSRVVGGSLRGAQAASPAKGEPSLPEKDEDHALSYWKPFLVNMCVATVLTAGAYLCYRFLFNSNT
Test: Inhibition of human recombinant PTP1B

SMILES	IC50
COc1ccc(/C=C/C(=O)c2ccc(O)cc2O)cc1	> 60 µM
COc1cc(OC)c2c(=O)c(-c3ccc(O)cc3)coc2c1	> 60 µM
COc1c(CC=C(C)C)cc([C@@H]2CC(=O)c3c(O)cc(O)cc3O2)cc1CC=C(C)C	26.3 µM
COc1c(CC=C(C)C)cc([C@@H]2CC(=O)c3ccc(O)cc3O2)cc1CC=C(C)C	21.2 µM
COc1c(CC=C(C)C)cc(/C=C/C(=O)c2ccc(O)cc2O)cc1CC=C(C)C	14.8 µM
COc1c(/C=C/C(C)(C)O)cc([C@@H]2CC(=O)c3ccc(O)cc3O2)cc1CC=C(C)C	> 60 µM
CC(C)=CCc1cc([C@@H]2CC(=O)c3ccc(O)cc3O2)cc(CC=C(C)C)c1O [ABYSSINONE IV]	16 µM
CC(C)=CCc1cc([C@@H]2CC(=O)c3c(O)cc(O)cc3O2)cc(CC=C(C)C)c1O [ABYSSINONE V]	39.7 µM

Next, values leading:

IC50	SMILES
41.5 µM	CC1(C)C=Cc2c(cc3occ(-c4ccc(O)cc4)c(=O)c3c2O)O1 [ALPINUMISOFLAVONE]
> 60 µM	O=C(/C=C/c1ccc(O)cc1)c1ccc(O)cc1O [ISOLIQUIRITIGENIN]
> 60 µM	O=C1C[C@@H](c2ccc(O)cc2)Oc2cc(O)ccc21 [LIQUIRTIGENIN]
> 60 µM	C[C@@H]1O[C@@H](O[C@H]2[C@H](Oc3cc(O)c4c(c3)O[C@H](c3ccc(O)cc3)CC4=O)O[C@H](CO)[C@@H](O)[C@@H]2O)[C@H](O)[C@H](O)[C@H]1O [NARINGIN]
39.2 µM	CC(C)=CCc1cc([C@@H]2CC(=O)c3c(O)cc(O)cc3O2)cc2c1OC(C)(C)C=C2 [SIGMOIDIN E]
